According to patent US8536132B2, “Lymphatic zip codes in tumors and pre-malignant lesions” (Sanford-Burnham Medical Research Institute, priority 2006, dated 2013):
Entries after “also recorded” stand apart in the source; their conditions may differ. Marks after values point to notes of the source that are not given here. Ends that are not written are not given here. * marks the point of attachment. FITC = O=C1OC2(c3ccc(O)cc3Oc3cc(O)ccc32)c2ccc(NC(=S)*)cc21

How the values were obtained:
C8161 xenografts = assay: In vivo phage homing to C8161 xenograft tumors; parameters: species or system mouse; conditions: for phage homing to C8161 tumors (in words): i.v. injected phage, C8161 xenograft mice
Method: (§1) The following cell lines were maintained in DMEM supplemented with 10% FCS: C8161 human melanoma, MDA-MB-435 human breast cancer, KRIB human osteosarcoma, and human prostate cancer cells PPC1, DU145. LNCaP human prostate cancer cell line was grown in RPMI 1640 medium with 10 mM HEPES, 1 mM sodium pyruvate and 1.5 g/L sodium bicarbonate supplemented with 10% FCS. M12 human prostate cancer cell line was cultured in RPMI 1640 with 5 μg/ml insulin-transferrin-sodium selenite (ITS), 2.5 μg/ml fungizone, 50 μg/ml gentamycin, 0.2 μM dexamethasone, 10 ng/ml epidermal growth factor (EGF), and 5% FCS (Bae et al., 1998). To produce tumors, nude BALB/c and C56BL/6 mice were subcutaneously (C8161, KRIB, and PPC1) or orthotopically ([…], PPC1, DU145, M12, and LNCaP) injected with 1×10^6 tumor cells. Transgenic mouse tumor models included TRAMP prostate cancer, MMTV-PyMT breast cancer, and K14-HPV16 cervical cancer. To initiate cervical carcinogenesis, female K14-HPV16 mice (Arbeit et al., 1994) were treated with 17β-estradiol (E2; (Arbeit et al., 1996; Giraudo et al., 2004). Briefly, one-month-old virgin female transgenic (heterozygous K14-HPV16, 1203#1) and nontransgenic (FVB/n) mice were anesthetized with isoflurane, and continuous release pellets that deliver E2 at doses of 0.05 mg over 60 days (Innovative Research of America, Sarasota, Fla., USA) were implanted subcutaneously in the dorsal back skin. Subsequent pellets were implanted at 3 and 5 months of age for a total of 6 months of hormone treatment. K14-HPV16 mice were maintained in the FVB/n background (FVB/n; The Jackson Laboratory). The mice were maintained in accordance with the University of California, San Francisco (UCSF) institutional guidelines governing the care of laboratory mice. The animal experimentation was approved by Animal Research Committees at UCSF or The Burnham Institute.
(§2) In vivo homing specificity of phage was tested as described (Hoffman, 2004). Briefly, mice bearing tumors were anesthetized and intravenously injected with 5×10^9 pfu of phage. After 7 min, the mice were perfused through the heart with PBS containing 0.5% BSA. The tumor and control organs were dissected from each mouse and the phage were rescued and tittered. For histology analysis, the mice were perfused with 4% PFA 30 min after the injection of phage. Tissues were embedded in Tissue-Tek O.C.T. and 5 μm sections were prepared for phage immunostaining.

KRIB xenografts = assay: In vivo phage homing to KRIB xenografts; parameters: species or system mouse; conditions: for phage homing to KRIB xenografts (in words): i.v. injected phage
Method: as §1, §2

K14-HPV16 skin cancer = assay: In vivo homing to K14-HPV16 skin cancer; parameters: species or system mouse
Method: as §1, §2

[1] = tested on: MDA-MB-435 orthotopic xenografts; assay: In vivo phage homing to MDA-MB-435 orthotopic xenografts; parameters: species or system mouse
Method: as §1, §2

MMTV-PyMT breast tumors = assay: In vivo phage homing to MMTV-PyMT breast tumors; parameters: species or system mouse
Method: as §1, §2

[2] = tested on: PPC1 orthotopic xenografts; assay: In vivo phage homing to PPC1 orthotopic xenografts; parameters: species or system mouse
Method: as §1, §2

TRAMP prostate tumors = assay: In vivo phage homing to TRAMP prostate tumors; parameters: species or system mouse
Method: as §1, §2

[3] = tested on: cell suspensions prepared from C8161 tumors; assay: Phage binding to cell suspensions prepared from C8161 tumors; format: cell-based, mouse; conditions: phage clone, ex vivo
C8161 tumors = assay: Tissue distribution of fluorescein-conjugated LSD peptide in C8161 tumor mice; format: in vivo, mouse; parameters: fluorescence in all other tissues except tumors: dose or concentration left out as unconfirmed; conditions: for fluorescent peptide in C8161 tumors and control organs: fluorescein-conjugate peptide i.v., 2 hrs circulation
Method: (§3) The frozen sections were prepared for immunohistological analysis.

KRIB tumors = assay: Fluorescein-labeled LSD peptide homing to KRIB tumors; format: in vivo, mouse; conditions: fluorescein-labeled peptide i.v.
Method: as §3

CXCR4 = biological target: T1, CXCR4 (Homo sapiens, UniProt P61073); assay: Phage binding to CXCR4-transfected 293T cells
T1 construct: expressed in transfected cells; host or cells: 293T cells, transient transfection with FuGene 6
Method: The 293T cells were transfected with plasmids encoding CXCR4 (Helbig et al., 2003) or VEGFR2 (Borges et al., 2000) using FuGene 6 transfection reagent (Roche Diagnostics, Indianapolis, Ind.). Briefly, plasmid (10 μg) was mixed with 900 μl of serumfree DMEM and 50 μl of FuGene and incubated for 15 min at room temperature before adding the mixture to the cells. The cells were detached using EDTA after 48 hrs post transfection and washed with PBS containing 1% BSA. Phage (5×10^9 pfu) were incubated with the transfected cells and bound phage were rescued and titrated. For competitive binding assay, the cognate peptide (150 μg/ml) or antibody (50 μg/ml) was added during incubating of the phage with cells. Targeted proapoptotic peptide treatment of tumor-bearing mice Prostate cancer model. Orthotopic xenografted prostate tumors were established by injecting 1×10^6 PPC1 human prostate cancer cells into the mouse prostate. Fifteen days post inoculation, the mice were intravenously injected with D(KLAKLAK)2-CREAGRKAC (SEQ ID NO:41), an equimolar mixture of D(KLAKLAK)2 (SEQ ID NO:19) and CREAGRKAC (SEQ ID NO:6), or PBS. Biweekly injections of 100 μg/dose/mouse were given for three weeks. Melanoma model. Nude BALB/c mice were subcutaneously injected with 1×10^6 C8161 human melanoma cells. Treatment started when mean tumor volumes reached about 100 mm3. Mice with size-matched tumors were randomized into three groups. The therapeutic group received a chimera of tumor homing peptide with the proapoptotic motif (D(KLAKLAK)2-CLSDCGKRKC; SEQ ID NO:42). The control groups received an equimolar mixture of CLSDGKRKC (SEQ ID NO:4) and D(KLAKLAK)2 (SEQ ID NO:19), or PBS alone. The tumor-bearing mice were intravenously injected with 200 μg/dose/mouse once a week for three weeks. The mice were monitored for weight loss, and tumors were dissected and weighed at the termination of the experiment. Histological analysis was performed to evaluate the density of tumor lymphatics and blood vessels. The animal experiments reported here were approved by The Burnham Institute Animal Research Committee.

VEGFR2 = biological target: T2, VEGFR2 (Homo sapiens, UniProt P35968); assay: Phage binding to VEGFR2-transfected 293T cells
T2 construct: expressed in transfected cells; host or cells: 293T cells, transient transfection with FuGene 6
Method: The 293T cells were transfected with plasmids encoding CXCR4 (Helbig et al., 2003) or VEGFR2 (Borges et al., 2000) using FuGene 6 transfection reagent (Roche Diagnostics, Indianapolis, Ind.). Briefly, plasmid (10 μg) was mixed with 900 μl of serumfree DMEM and 50 μl of FuGene and incubated for 15 min at room temperature before adding the mixture to the cells. The cells were detached using EDTA after 48 hrs post transfection and washed with PBS containing 1% BSA. Phage (5×10^9 pfu) were incubated with the transfected cells and bound phage were rescued and titrated. For competitive binding assay, the cognate peptide (150 μg/ml) or antibody (50 μg/ml) was added during incubating of the phage with cells. Targeted proapoptotic peptide treatment of tumor-bearing mice Prostate cancer model. Orthotopic xenografted prostate tumors were established by injecting 1×10^6 PPC1 human prostate cancer cells into the mouse prostate. Fifteen days post inoculation, the mice were intravenously injected with D(KLAKLAK)2-CREAGRKAC (SEQ ID NO:41), an equimolar mixture of D(KLAKLAK)2 (SEQ ID NO:19) and CREAGRKAC (SEQ ID NO:6), or PBS. Biweekly injections of 100 μg/dose/mouse were given for three weeks. Melanoma model. […] The mice were monitored for weight loss, and tumors were dissected and weighed at the termination of the experiment. […]

[4] = tested on: the other tumors, including the skin cancers; assay: Fluorescein-labeled LSD peptide homing to other tumors; format: in vivo, mouse; conditions: fluorescein-labeled peptide i.v.
Method: as §3

[5] = tested on: K14-HPV16/E2 cervical lesions; assay: Distribution of fluorescent peptides in K14-HPV16/E2 mice with cervical lesions; format: in vivo, mouse; conditions: labeled peptide i.v.
Method: as §3

[6] = tested on: PPC1, M12, DU145, and LNCaP orthotopic xenografts; assay: Fluorescein-conjugated REA peptide homing to orthotopic human prostate cancer xenografts; format: in vivo, mouse
Method: Custom immunization to produce a rabbit antiserum against mouse Prox-1 was performed by Proteintech Inc. New Zealand White rabbits were immunized with a fusion protein of GST-C-terminal fragment of Prox-1 protein. The antibody was affinity purified on the fusion protein and absorbed with GST. […] Antibodies against the lymphatic markers anti-LYVE-1 (Laakkonen et al., 2002) and anti-podoplanin (kindly provided by T. Petrova and K. Alitalo), rat monoclonal anti-mouse CD31 (BD Pharmingen), rat anti-mouse MECA-32 (Pharmingen), rabbit polyclonal anti-T7 phage, and rat anti-mouse VEGFR3 were used for immunohistochemical staining of frozen tissue sections as described (Joyce et al., 2003; Laakkonen et al., 2002). The corresponding secondary antibodies were added and incubated for 1 hr at room temperature: AlexaFluor-488 goat anti-rat or rabbit IgG (1:1000; Molecular Probes, Eugene, Oreg.), AlexaFluor-594 goat anti-rat or rabbit IgG (1:1000, Molecular Probes), AlexaFluor-594 donkey anti-mouse or goat IgG (1:1000, Molecular Probes), and AlexaFluor-488 donkey anti-mouse or goat IgG (1:1000; Molecular Probes), respectively. The slides were washed three times with PBS and mounted in Vectashield Mounting Medium with DAPI (Vector Laboratories, Burlingame, Calif.). […]

[7] = phage homing in vivo, C8161 (s.c.) xenografts
[8] = phage homing in vivo, KRIB xenografts
[9] = phage homing in vivo, K14-HPV16 skin cancer
[10] = phage homing in vivo, MDA-MB-435 orthotopic xenografts
[11] = phage homing in vivo, MMTV-PyMT breast tumors
[12] = phage homing in vivo, PPC1 orthotopic xenografts
[13] = phage homing in vivo, TRAMP prostate tumors
[14] = fluorescein-conjugate peptide, C8161 tumor sections

T1 sequence (P61073 whole entry, species assumed): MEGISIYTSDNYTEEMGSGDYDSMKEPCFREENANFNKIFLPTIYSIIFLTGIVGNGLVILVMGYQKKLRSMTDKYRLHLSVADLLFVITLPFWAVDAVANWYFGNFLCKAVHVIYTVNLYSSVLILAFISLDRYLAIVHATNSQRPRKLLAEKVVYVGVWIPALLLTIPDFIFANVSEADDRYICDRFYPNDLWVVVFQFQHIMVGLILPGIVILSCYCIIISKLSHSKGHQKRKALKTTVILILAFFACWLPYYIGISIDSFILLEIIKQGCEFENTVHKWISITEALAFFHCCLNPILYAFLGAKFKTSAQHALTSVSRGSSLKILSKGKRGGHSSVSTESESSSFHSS
T2 sequence (P35968 20-1356, species assumed): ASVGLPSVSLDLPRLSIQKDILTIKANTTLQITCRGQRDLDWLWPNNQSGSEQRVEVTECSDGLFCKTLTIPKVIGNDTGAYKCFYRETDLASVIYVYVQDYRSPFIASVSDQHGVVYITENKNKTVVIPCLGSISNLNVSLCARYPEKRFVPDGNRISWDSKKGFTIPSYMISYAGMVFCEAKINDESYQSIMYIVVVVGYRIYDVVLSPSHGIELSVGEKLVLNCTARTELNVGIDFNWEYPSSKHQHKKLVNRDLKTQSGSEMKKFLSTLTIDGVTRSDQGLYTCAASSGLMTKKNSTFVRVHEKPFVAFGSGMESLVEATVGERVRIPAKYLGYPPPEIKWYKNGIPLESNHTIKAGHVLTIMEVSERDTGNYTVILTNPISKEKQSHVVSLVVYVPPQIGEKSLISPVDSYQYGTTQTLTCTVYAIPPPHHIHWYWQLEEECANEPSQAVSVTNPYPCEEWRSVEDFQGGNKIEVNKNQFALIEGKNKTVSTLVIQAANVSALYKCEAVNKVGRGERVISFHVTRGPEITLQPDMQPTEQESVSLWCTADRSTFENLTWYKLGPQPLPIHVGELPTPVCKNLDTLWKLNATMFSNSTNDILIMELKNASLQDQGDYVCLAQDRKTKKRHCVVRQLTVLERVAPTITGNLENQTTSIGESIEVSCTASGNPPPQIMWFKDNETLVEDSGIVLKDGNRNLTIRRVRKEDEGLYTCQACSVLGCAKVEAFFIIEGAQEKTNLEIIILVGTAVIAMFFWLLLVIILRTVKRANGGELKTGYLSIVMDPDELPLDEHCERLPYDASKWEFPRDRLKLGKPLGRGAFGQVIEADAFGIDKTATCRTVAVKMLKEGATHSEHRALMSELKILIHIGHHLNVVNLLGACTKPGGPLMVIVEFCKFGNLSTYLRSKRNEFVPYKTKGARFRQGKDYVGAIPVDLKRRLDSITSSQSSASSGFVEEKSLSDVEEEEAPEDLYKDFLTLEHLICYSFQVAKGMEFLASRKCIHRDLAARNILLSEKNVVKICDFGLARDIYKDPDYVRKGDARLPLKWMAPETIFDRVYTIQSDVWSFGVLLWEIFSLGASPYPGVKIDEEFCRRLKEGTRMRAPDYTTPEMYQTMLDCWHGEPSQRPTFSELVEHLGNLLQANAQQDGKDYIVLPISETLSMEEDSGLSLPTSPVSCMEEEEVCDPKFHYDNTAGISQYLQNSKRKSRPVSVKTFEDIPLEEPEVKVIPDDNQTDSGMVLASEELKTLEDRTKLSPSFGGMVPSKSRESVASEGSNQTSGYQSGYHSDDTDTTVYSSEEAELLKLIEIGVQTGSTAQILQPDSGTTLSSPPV

CLSDGKRKC [homing peptide for C8161 melanoma lymphatics]
phage homing to C8161 tumors (in words) (C8161 xenografts): Robust phage homing
phage homing to C8161 tumors (in words) (C8161 xenografts; listed as CLSDGKRKC): homed selectively to the tumors
phage homing to C8161 tumors (in words) (C8161 xenografts; listed as LSD phage): significantly higher than in normal tissues
relative efficiency of tumor homing of the two phage (C8161 xenografts; i.v. injection, nude mice bearing C8161 tumors): about twice as efficient as CLDGGRPKC
Fold over control phage (C8161 xenografts; [7]): 39 fold
Specific Homing (C8161 xenografts; [7]): Yes
phage homing to KRIB xenografts (in words) (KRIB xenografts): slightly positive
phage homing to KRIB xenografts (in words) (KRIB xenografts; listed as LSD phage): possible low-level homing
Fold over control phage (KRIB xenografts; [8]): 7^‡ fold
Specific Homing (KRIB xenografts; [8]): Yes
homing to K14-HPV16 skin cancers (in words) (K14-HPV16 skin cancer; i.v. injection, K14-HPV16 mice): possible low-level homing
Fold over control phage (K14-HPV16 skin cancer; [9]): 5 fold
Specific Homing (K14-HPV16 skin cancer; [9]): No
phage homing to MDA-MB-435 tumors (in words) ([1]; i.v. injected phage, listed as LSD phage): did not appreciably home
Fold over control phage [1, 10]: 3 fold
Specific Homing [1, 10]: No
phage homing to MMTV-PyMT breast tumors (in words) (MMTV-PyMT breast tumors; i.v. injected phage): did not appreciably home
Fold over control phage (MMTV-PyMT breast tumors; [11]): 3 fold
Specific Homing (MMTV-PyMT breast tumors; [11]): No
phage homing to PPC1 orthotopic xenografts (in words) ([2]; i.v. injected phage): did not appreciably home
Fold over control phage [2, 12]: 3 fold
Specific Homing [2, 12]: No
phage homing to TRAMP prostate tumors (in words) (TRAMP prostate tumors; i.v. injected phage): did not appreciably home
Fold over control phage (TRAMP prostate tumors; [13]): 1 fold
Specific Homing (TRAMP prostate tumors; [13]): No
binding to C8161 tumor cell suspensions relative to control phage [3]: 100 fold
binding to cell suspensions prepared from C8161 tumors (in words) [3]: bound to cell suspensions prepared from C8161 tumors
fluorescent peptide in C8161 tumors and control organs (C8161 tumors): detected within the tumors, but not in control organs
co-localization with blood vessel markers MECA-32 and CD31 (C8161 tumors; [14]): no co-localization
co-localization with lymphatic vessel markers podoplanin, Prox-1, LYVE-1, VEGFR3 (C8161 tumors; [14]): co-localization of the LSD fluorescence with them
lymphatic vessels positive for the peptide that were also positive for podoplanin (C8161 tumors; fluorescein-conjugate peptide, C8161 tumors): 85%
fluorescent peptide homing to KRIB tumors (in words) (KRIB tumors): slightly positive
phage binding to CXCR4-transfected 293T cells (in words) (CXCR4; 293T cells): binds to 293T cells transfected with CXCR4
phage binding to CXCR4-transfected 293T cells versus mock- or VEGFR2-transfected cells (CXCR4; 293T cells): 16 fold
inhibition of LSD phage binding to CXCR4-transfected 293T cells (CXCR4; peptide 150 μg/ml co-incubated with phage, listed as LSD peptide): inhibits LSD-phage binding; also recorded: inhibited the binding
phage binding to VEGFR2-transfected 293T cells (in words) (VEGFR2): not to cells transfected with VEGFR2

FITC-LSD: fluorescein-conjugated LSD peptide (CLSDGKRKC) ({FITC}-CLSDGKRKC; cysteine pairing not given here)
fluorescence in kidneys (C8161 tumors; FITC-LSD (150 mg) i.v., 2 hrs): A few spots of LSD fluorescence
fluorescence in all other tissues except tumors (C8161 tumors; FITC-LSD i.v., 2 hrs): negative
fluorescent peptide in C8161 tumors and control organs (C8161 tumors): Strong LSD peptide fluorescence
fluorescent peptide homing to KRIB tumors (in words) (KRIB tumors): weakly positive
fluorescent peptide homing to the other tumors, including skin cancers [4]: negative

FITC-REA: fluorescein-labeled REA peptide (CREAGRKAC) (not fully specified (N-terminus); cysteine pairing not given here; also: FITC label, position not given here)
fluorescent peptide in K14-HPV16/E2 cervical lesions/tumors (in words) [5]: homed to a lesser extent
fluorescent peptide in PPC1, M12, DU145, LNCaP orthotopic xenografts ([6]; fluorescein-conjugated peptide): positive
co-localization with lymphatic vessels in orthotopic prostate tumor xenografts ([6]; immunohistochemical analysis): co-localized with lymphatic vessels
